# Settings: buffer; pH 7.4; 200.0 µM
row,Structure (SMILES),solubility kinetic [µg/mL]
1,O=C(CN1CCCC1)NN=C(c1ccccc1)c1ccccc1,> 46.1
2,COc1cccc(/C=C/C(=O)OCC(=O)N2CCCC2)c1OC,> 47.9
3,O=C(C(Cl)Cl)N1CCN(Cc2ccc3c(c2)OCO3)CC1,42.6
4,COc1cc(CNc2nc3ccccc3s2)cc(OC)c1OC,48.4
5,O=C(O)Cc1csc(-c2cccc(F)c2)n1,> 35.6
6,Cc1nc(NC(=O)c2cncc(Br)c2)ccc1Br,2.1
7,COc1ccc(Nc2nc(C)cc(C)n2)cc1Cl.Cl,> 45
8,O=C(NC(=S)NCc1ccccc1)c1cccs1,1.4
9,O=C(N1CCOCC1)N1CCN(S(=O)(=O)c2ccc(F)cc2)CC1,> 53.6
10,O=C(COC(=O)c1ccc(Cl)nc1)Nc1ccc(Cl)cc1,6.4
11,O=C(Cn1cc(C(F)(F)F)ccc1=O)Nc1ccccc1,10
12,O=C(Nc1cccc2ncccc12)c1ccccc1Cl,18.5
13,CC(OC(=O)c1ccco1)C(=O)Nc1nc(-c2ccccc2)cs1 (stereo not given),4.5
14,CCOc1ccc(C(=O)NCc2ccco2)cc1Cl,34.5
15,O=C(Nc1ccc(NC(=O)c2cccs2)cc1)c1cccs1,0.9
16,Cc1cc(C)nc(N2CCCC(C(=O)NC(C)C)C2)n1 (stereo not given),41.1

row,Structure (SMILES),solubility kinetic [µg/mL]
1,COc1ccc(C(=O)CC(=O)C(=O)Nc2c(C)cccc2C)cc1,15.6
2,Cc1c(C(=O)OC(C)C(=O)N(C)Cc2ccccc2)oc2ccccc12 (stereo not given),18.5
3,CCOC(=O)c1nccnc1C(=O)Nc1cccc(C(F)(F)F)c1,47.5
4,O=C(CSc1ncccn1)NC1CCS(=O)(=O)C1 (stereo not given),39.7
5,COc1ccc(CCNc2nc(-c3ccncc3)cs2)cc1OC,35.9
6,CN(C)c1nc(/C=C(\C#N)C(N)=O)c(Cl)n1-c1ccc(F)cc1,8.3
7,CCN(Cc1nc(-c2ccccc2)no1)C(=O)c1ccoc1C,40.2
8,CC(C)CC(NC(=O)C1CCC(C)CC1)C(=O)NCc1ccco1 (stereo not given),25.2
9,O=C(Nc1ccccc1)Nc1nc(-c2ccccc2)cs1,< 0.2
10,CC(=O)Nc1ccc(C(=S)NCC2(N(C)C)CCCCC2)cc1,21.1
11,COc1ccc(NC(=S)NCCCN2CCOCC2)cc1,> 46.4
12,O=C(Nc1ccc(Cl)cn1)c1cc2c(s1)-c1ccccc1OC2,< 0.4
13,CCOc1ccc(C(=O)O/N=C(\N)c2ccccn2)cc1,5.2
14,O=C(CC1CCOCC1)Nc1ccc(Cl)c(Cl)c1,> 43.2
15,CCC(CO)Nc1ncnc2onc(-c3ccc(F)cc3)c12 (stereo not given),> 45.3

# Continued, values first:
row,solubility kinetic [µg/mL],Structure (SMILES)
1,> 47.6,O=C(CN1C(=O)CSc2ncccc21)Nc1ccccc1F
2,37.6,Nc1ccccc1Nc1c(F)c(F)nc(F)c1Cl
3,> 44,CCC(=O)Nc1ccc2c(c1)ncn2CCc1ccccc1
4,> 50,Cc1ccccc1C(=O)c1c[nH]c(C(=O)NCCc2ccccn2)c1
5,> 59.7,O=C(CN1C(=O)NC2(CCCCC2)C1=O)NCCc1ccc(Cl)cc1Cl
6,> 47.9,O=C(CN1CCN(Cc2ccc(F)cc2)C1=O)NC1CCCC1
7,> 45,Cc1ccccc1Oc1nc2c(c(=O)n(C)c(=O)n2C)n1C
8,17.2,Clc1cccc(Cl)c1CN1CCN(c2ncccn2)CC1
9,0.5,Nc1cc(Cl)ccc1C(=O)OCC(=O)NC1CCCCC1
10,43.9,CCNc1ccc(C(=O)OCC(=O)N2CCCC2)cc1[N+](=O)[O-]
11,11.4,O=C(c1cc2ccccc2o1)N1CCN(c2ccccn2)CC1
12,> 33.6,CCOc1ccc(NC(C)=O)cc1[N+](=O)[O-]
13,0.5,Cc1cc(C)c2cc(C(=O)N3CCc4ccccc4C3)[nH]c2c1
14,> 45.2,CN1C(=O)NC(c2ccccc2[N+](=O)[O-])C2=C1CCCC2=O (stereo not given)
15,4.9,COCCNc1nc(N)c([N+](=O)[O-])c(NCc2ccccc2)n1
16,> 46.5,O=C1ON=C(c2cccc([N+](=O)[O-])c2)/C1=C/c1ccc(O)cc1
17,< 0.6,Cc1ccccc1OCCn1cc(C=O)c2ccccc21
18,0.5,Cn1c(=O)c2cc3c(nc2n(C)c1=O)CC(c1ccccc1)CC3=O (stereo not given)
19,> 49.7,COc1cccc(-c2noc(CCC(=O)NCC3CCCO3)n2)c1 (stereo not given)
20,19.3,CCc1cccc(C)c1NC(=O)c1ccc2c(c1)CCN2S(C)(=O)=O
21,> 43,O=S(=O)(Nc1ccccc1F)c1ccc(Cl)nc1
22,2.8,Cc1ncn2cc(-c3ccc(Cl)cc3Cl)[nH]c(=O)c12
23,2.8,Cn1cccc1C(=O)OCC(=O)N1CCc2ccccc21
24,> 42.6,CCc1nc2ccccc2n1CC(=O)Nc1cc(C)on1
25,> 38.7,COc1nc(-c2ccccc2)nc(C)c1CC(=O)O
26,> 51,COc1ccccc1/C=C/C(=O)OC(C)CN1CCCCC1.Cl (stereo not given)
27,1.2,O=[N+]([O-])c1cccc(-c2nc3ccc([N+](=O)[O-])cc3[nH]2)c1
28,> 49.7,O=C(O)CC1c2ccccc2CCN1S(=O)(=O)c1ccccc1 (stereo not given)
29,> 48.9,Br.COC(=O)CN1C2=NCCCN2c2ccccc21
